Assay results as given in patent US5428059A, “Benzopyran derivatives and an anti-allergic agent possessing the same as the active ingredient” (Dainippon Ink & Chemicals, Inc., priority 1991, dated 1995).

Tested on: Hartley-type male guinea pigs
Assay: Guinea Pig Homogeneous Skin Passive Anaphylaxis Assay (PCA reaction)
Format: in vivo, guinea pig (Hartley-type)
Settings: 10 mg/kg oral, 48 h after sensitization; for inhibition in vivo at 10 mg/kg: Cavia porcellus, read-out: Allergic reaction inhibitory index (%)
Method in brief: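 Male Hartley guinea pigs (250~300 g) given intradermal back injections of 120-fold-diluted anti-OVA serum; 48 h later test substance dosed orally at 10 mg/kg, then challenged i.v. with OVA plus Evans Blue. Dye-spot area (long × short diameter, mm^2) measured at 30 min; inhibition % calculated against solvent control.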

## CCCCCCCCCCOc1cccc2oc(=O)c(OC(=O)c3ccccc3)c(OC/C=C(\C)CCC=C(C)C)c12 [Compound 240, 3-(benzoyloxy)-4-(geranyloxy)-5-(decyloxy)-2H-1-benzopyran-2-one]
  inhibition in vivo at 10 mg/kg: 30%

## COc1ccc2oc(=O)c(O)c(O)c2c1 [Compound 272, 3,4-(dihydroxy)-6-(methoxy)-2H-1-benzopyran-2-one]
  inhibition in vivo at 10 mg/kg: 30%

## 3-(methoxy)-4-(decyloxy)-8-hydroxy-2H-1-benzopyran-2-one [Compound 99]
  Allergic reaction inhibitory index (%): 33%

## CCCCCCCCCCOc1cccc2oc(=O)c(OC/C=C(\C)CCC=C(C)C)c(O)c12 [Compound 237, 3-(geranyloxy)-4-hydroxy-5-(decyloxy)-2H-1-benzopyran-2-one]
  inhibition in vivo at 10 mg/kg: 34%

## CC(C)Oc1c(OC(=O)c2ccccc2)c2ccc(O)cc2oc1=O [Compound 13, 3-(isopropoxy)-4-(benzoyloxy)-7-hydroxy-2H-1-benzopyran-2-one]
  inhibition in vivo at 10 mg/kg: 32%

## CCCCCCCCCCOc1c(O)c2cccc(OC(C)C)c2oc1=O [Compound 133, 3-(decyloxy)-4-hydroxy-8-(isopropoxy)-2H-1-benzopyran-2-one]
  inhibition in vivo at 10 mg/kg: 36%

## CC(C)=CCC/C(C)=C/COc1ccc2c(OC/C=C(\C)CCC=C(C)C)c(OC(C)C)c(=O)oc2c1 [Compound 88, 3-(isopropoxy)-4,7-(digeranyloxy)-2H-1-benzopyran-2-one]
  inhibition in vivo at 10 mg/kg: 30%

## CC(C)=CCC/C(C)=C/COc1c(OC/C=C(\C)CCC=C(C)C)c2cccc(OC(C)C)c2oc1=O [Compound 142, 3,4-(digeranyloxy)-8-(isopropoxy)-2H-1-benzopyran-2-one]
  inhibition in vivo at 10 mg/kg: 31%

## CCCCCCCCCCOc1c(O)c(=O)oc2cccc(OC)c12 [Compound 199, 3-hydroxy-4-(decyloxy)-5-(methoxy)-2H-1-benzopyran-2-one]
  inhibition in vivo at 10 mg/kg: 32%

## CC(C)=CCC/C(C)=C/COc1c(OC(C)C)c2ccc(OC(C)C)cc2oc1=O [Compound 55, 3-(geranyloxy)-4,7-(diisopropoxy)-2H-1-benzopyran-2-one]
  inhibition in vivo at 10 mg/kg: 33%

## CC(=O)Oc1c(OC(=O)c2ccccc2)c2cccc(O)c2oc1=O [Compound 96, 3-(acetoxy)-4-(benzoyloxy)-8-hydroxy-2H-1-benzopyran-2-one]
  inhibition in vivo at 10 mg/kg: 32%

## CCCCCCCCCCOc1c(OC(C)C)c2ccc(OC/C=C(\C)CCC=C(C)C)cc2oc1=O [Compound 80, 3-(decyloxy)-4-(isopropoxy)-7-(geranyloxy)-2H-1-benzopyran-2-one]
  inhibition in vivo at 10 mg/kg: 30%

## CCCCCCCCCCOc1ccc2oc(=O)c(OC(C)=O)c(O)c2c1 [Compound 279, 3-(acetoxy)-4-(hydroxy)-6-(decyloxy)-2H-1-benzopyran-2-one]
  inhibition in vivo at 10 mg/kg: 30%

## CC(C)Oc1ccc2c(O)c(OC(=O)c3ccccc3)c(=O)oc2c1 [Compound 44, 3-(benzoyloxy)-4-(hydroxy)-7-(isopropoxy)-2H-1-benzopyran-2-one]
  inhibition in vivo at 10 mg/kg: 37%

## COc1c(O)c(=O)oc2ccc(O)cc12 [Compound 267, 3,6-(dihydroxy)-4-(methoxy-2H-1-benzopyran-2-one]
  inhibition in vivo at 10 mg/kg: 34%

## CCCCCCCCCCOc1cccc2c(OC(=O)c3ccccc3)c(OC)c(=O)oc12 [Compound 150, 3-(methoxy)-4-(benzoyloxy)-8-(decyloxy)-2H-1-benzopyran-2-one]
  inhibition in vivo at 10 mg/kg: 34%

## CC(C)Oc1cccc2oc(=O)c(O)c(OC(C)C)c12 [Compound 215, 3-hydroxy-4,5-(diisopropoxy)-2H-1-benzopyran-2-one]
  inhibition in vivo at 10 mg/kg: 34%

## COc1cccc2c(OC/C=C(\C)CCC=C(C)C)c(OC(C)=O)c(=O)oc12 [Compound 123, 3-(acetoxy)-4-(geranyloxy)-8-(methoxy)-2H-1-benzopyran-2-one]
  inhibition in vivo at 10 mg/kg: 34%

## CC(C)=CCC/C(C)=C/COc1c(OC/C=C(\C)CCC=C(C)C)c2cccc(O)c2oc1=O [Compound 109, 3,4-(digeranyloxy)-8-hydroxy-2H-1-benzopyran-2-one]
  inhibition in vivo at 10 mg/kg: 34%

## COc1c(OC(C)=O)c2cccc(OC/C=C(\C)CCC=C(C)C)c2oc1=O [Compound 166, 3-(methoxy)-4-(acetoxy)-8-(geranyloxy)-2H-1-benzopyran-2-one]
  inhibition in vivo at 10 mg/kg: 30%

## COc1c(OC/C=C(\C)CCC=C(C)C)c2c(OC(C)C)cccc2oc1=O [Compound 222, 3-(methoxy)-4-(geranyloxy)-5-(isopropoxy)-2H-1-benzopyran-2-one]
  inhibition in vivo at 10 mg/kg: 32%

## CCCCCCCCCCOc1c(OC(=O)c2ccccc2)c2c(OC)cccc2oc1=O [Compound 202, 3-(decyloxy)-4-(benzoyloxy)-5-(methoxy)-2H-1-benzopyran-2-one]
  inhibition in vivo at 10 mg/kg: 30%

## COc1cccc2oc(=O)c(OC/C=C(\C)CCC=C(C)C)c(OC/C=C(\C)CCC=C(C)C)c12 [Compound 209, 3,4-(digeranyloxy)-5-(methoxy)-2H-1-benzopyran-2-one]
  inhibition in vivo at 10 mg/kg: 33%

## CC(C)=CCC/C(C)=C/COc1c(OC/C=C(\C)CCC=C(C)C)c2c(OC(C)C)cccc2oc1=O [Compound 223, 3,4-(digeranyloxy)-5-(isopropoxy)-2H-1-benzopyran-2-one]
  inhibition in vivo at 10 mg/kg: 33%

## CC(=O)Oc1cccc2oc(=O)c(OC(=O)c3ccccc3)c(OC(C)=O)c12 [Compound 181, 3-(benzoyloxy)-4,5-(diacetoxy)-2H-1-benzopyran-2-one]
  inhibition in vivo at 10 mg/kg: 33%

## CC(C)=CCC/C(C)=C/COc1c(OC(C)C)c2cccc(OC(C)C)c2oc1=O [Compound 140, 3-(geranyloxy)-4,8-(diisopropoxy)-2H-1-benzopyran-2-one]
  inhibition in vivo at 10 mg/kg: 30%

## CC(C)Oc1c(O)c2ccc(O)cc2oc1=O [Compound 15, 3-(isopropoxy)-4,7-(dihydroxy)-2H-1-benzopyran-2-one]
  inhibition in vivo at 10 mg/kg: 41%

## CC(=O)Oc1c(O)c2ccc(O)cc2oc1=O [Compound 7, 3-(acetoxy)-4,7-(dihydroxy)-2H-1-benzopyran-2-one]
  inhibition in vivo at 10 mg/kg: 48%

## COc1cccc2oc(=O)c(OC(C)C)c(O)c12 [Compound 198, 3-(isopropoxy)-4-hydroxy-5-(methoxy)-2H-1-benzopyran-2-one]
  inhibition in vivo at 10 mg/kg: 40%

## COc1ccc2c(OC(C)=O)c(OC(=O)c3ccccc3)c(=O)oc2c1 [Compound 35, 3-(benzoyloxy)-4-(acetoxy)-7-(methoxy)-2H-1-benzopyran-2-one]
  inhibition in vivo at 10 mg/kg: 30%

## COc1ccc2c(OC(C)=O)c(O)c(=O)oc2c1 [Compound 31, 3-hydroxy-4-(acetoxy)-7-(methoxy)-2H-1-benzopyran-2-one]
  inhibition in vivo at 10 mg/kg: 38%

## O=c1oc2cccc(O)c2c(O)c1O [Compound 177, 3,4,5-trihydroxy-2H-1-benzopyran-2-one]
  inhibition in vivo at 10 mg/kg: 37%

## CC(=O)Oc1c(O)c(=O)oc2cccc(OC/C=C(\C)CCC=C(C)C)c12 [Compound 246, 3-hydroxy-4-(acetoxy)-5-(geranyloxy)-2H-1-benzopyran-2-one]
  inhibition in vivo at 10 mg/kg: 30%

## COc1ccc2c(O)c(OC(=O)c3ccccc3)c(=O)oc2c1 [Compound 27, 3-(benzoyloxy)-4-hydroxy-7-(methoxy)-2H-1-benzopyran-2-one]
  inhibition in vivo at 10 mg/kg: 40%

## COc1c(O)c2cc(O)ccc2oc1=O [Compound 265, 3-(methoxy)-4,6-(dihydroxy)-2H-1-benzopyran-2-one]
  inhibition in vivo at 10 mg/kg: 37%

## CC(C)=CCC/C(C)=C/COc1cccc2oc(=O)c(O)c(OC(C)C)c12 [Compound 249, 3-hydroxy-4-(isopropoxy)-5-(geranyloxy)-2H-1-benzopyran-2-one]
  inhibition in vivo at 10 mg/kg: 32%

## CC(C)=CCC/C(C)=C/COc1cccc2c(O)c(OC(=O)c3ccccc3)c(=O)oc12 [Compound 158, 3-(benzoyloxy)-4-hydroxy-8-(geranyloxy)-2H-1-benzopyran-2-one]
  inhibition in vivo at 10 mg/kg: 30%

## COc1cccc2c(OC(C)=O)c(OC(C)=O)c(=O)oc12 [Compound 113, 3,4-(diacetoxy)-8-(methoxy)-2H-1-benzopyran-2-one]
  Allergic reaction inhibitory index (%): 30%

## CC(C)=CCC/C(C)=C/COc1cccc2oc(=O)c(OC(C)C)c(OC/C=C(\C)CCC=C(C)C)c12 [Compound 258, 3-(isopropoxy)-4,5-(digeranyloxy)-2H-1-benzopyran-2-one]
  inhibition in vivo at 10 mg/kg: 32%

## CC(C)=CCC/C(C)=C/COc1c(O)c2cccc(OC(C)C)c2oc1=O [Compound 138, 3-(geranyloxy)-4-hydroxy-8-(isopropoxy)-2H-1-benzopyran-2-one]
  inhibition in vivo at 10 mg/kg: 35%

## CCCCCCCCCCOc1cccc2c(OC/C=C(\C)CCC=C(C)C)c(OC/C=C(\C)CCC=C(C)C)c(=O)oc12 [Compound 157, 3,4-(digeranyloxy)-8-(decyloxy)-2H-1-benzopyran-2-one]
  inhibition in vivo at 10 mg/kg: 30%

## CCCCCCCCCCOc1c(O)c2ccc(O)cc2oc1=O [Compound 16, 3-(decyloxy)-4,7-(dihydroxy)-2H-1-benzopyran-2-one]
  inhibition in vivo at 10 mg/kg: 40%

## CCCCCCCCCCOc1c(OC(C)=O)c(=O)oc2cc(O)ccc12 [Compound 12, 3-(acetoxy)-4-(decyloxy)-7-hydroxy-2H-1-benzopyran-2-one]
  inhibition in vivo at 10 mg/kg: 30%

## COc1c(OC(C)=O)c2ccc(OC/C=C(\C)CCC=C(C)C)cc2oc1=O [Compound 82, 3-(methoxy)-4-(acetoxy)-7-(geranyloxy)-2H-1-benzopyran-2-one]
  inhibition in vivo at 10 mg/kg: 30%

## CC(C)Oc1cccc2oc(=O)c(O)c(O)c12 [Compound 211, 3,4-(dihydroxy)-5-(isopropoxy)-2H-1-benzopyran-2-one]
  inhibition in vivo at 10 mg/kg: 52%

## COc1c(OC/C=C(\C)CCC=C(C)C)c2c(OC)cccc2oc1=O [Compound 208, 3,5-(dimethoxy)-4-(geranyloxy)-2H-1-benzopyran-2-one]
  inhibition in vivo at 10 mg/kg: 32%

## CC(C)=CCC/C(C)=C/COc1c(OC(=O)c2ccccc2)c(=O)oc2cc(O)ccc12 [Compound 23, 3-(benzoyloxy)-4-(geranyloxy)-7-hydroxy-2H-1-benzopyran-2-one]
  inhibition in vivo at 10 mg/kg: 30%
